Laboratory results reported in patent US20250120942A1, “BRAIN FUNCTION IMPROVING AGENT” (OSAKA UNIVERSITY, priority 2021, published 2025).

Assays:
[1] = cited from earlier work
amyloid β = conditions: mouse model of the Alzheimer's disease; cited from earlier work
acetylcholine esterase = acetylcholine esterase (Homo sapiens, UniProt P22303); test: Inhibiting action of acetylcholine esterase (data not described); format: biochemical
[2] = tested on: cranial nerve cell SH-SY5Y; conditions: SH-SY5Y in vitro; cited from earlier work
[3] = tested on: extracellular acetylcholine in the cerebral cortex; test: Amount of extracellular acetylcholine in mouse brain by in vivo microdialysis (Test Example 1); parameters: species or system ddY mouse; conditions: for amount of extracellular acetylcholine in the cerebral cortex (ratio to basic released amount): oral 30 mg/kg, measured for 120 minutes after administration, compared with before administration, FIG. 1
Protocol: The compound A, B, and C were administered orally to the mouse and the effect on the amount of extracellular acetylcholine in the brain was examined. The brain microdyalysis method using the mouse is proposed as a test for evaluating cognitive dysfunction including Alzheimer type dementia. The brain microdyalysis method is a system that can monitor the variation of extracellular neurotransmitter release in real time at the local parts in the brain while the test animals are moving freely without anesthesia.
(§1) 7-weeks-old male ddY mice were purchased from Japan SLC, Inc. and subjected to the experiment after one week habituation period. The animals were reared in the rearing chamber provided with air conditioner (under the condition that the temperature was 22° C.±1° C., the relative humidity was 50±10%, and the irradiation time was 12 hours (8:00 to 20:00)). The feeding method was that the commercially available MF powdery feed (manufactured by Oriental Yeast Co., ltd.) and tap water were taken freely.
In the two days before the start of the experiment, the fixing operation of the guide cannula for inserting the dialysis probe in the mouse was conducted in advance. Under the deep anesthetized conditions, the guide cannula (depth 4 mm) (manufactured by Eicom Corp.,) was inserted in and fixed on cerebral cortex prefrontal area (which was 1.9 mm forward and 0.5 mm right side from the bregma and to which the depth from cranial surface was 0.8 mm). Buprenorphine (0.01 mg/kg manufactured by Sigma-Aldrich Japan) was administered to the mouse as analgesic after the operation. Each mouse was reared in the separate cage after the operation.
In the step of measuring extracellular acetylcholine in the brain, the dialysis probe (membrane length 3 mm) (manufactured by Eicom Corp.,) was inserted in the guide cannula and the Ringer's solution in the Japanese Pharmacopeia (containing NaCl (147.2 mM), KCl (4.0 mM), and CaCl2 (2.2 mM); manufactured by FUSO CHEMICAL CO., LTD.) was perfused at the flow velocity of 1 μL/min. The sample obtained by the perfusion was collected every 20 minutes and was immediately continuously automatically injected in the high-speed liquid chromatography/electrochemical detector (HPLC/ECD) system (manufactured by Eicom Corp., HTEC-500) together with the internal standard material (isopropylhomocholine, 250 fmol) and acetylcholine was measured under the condition described below.
• Column: Eicompak AC-GEL (2.0 mm; i.d.×150 mm) (manufactured by Eicom Corp.,) • Precolumn: PC-05-03 (3.0 mm; i.d.×40 mm) (manufactured by Eicom Corp.,) • Enzyme-immobilized column: AC-Enzympak (3.0 mm; i.d.) (manufactured by Eicom Corp.,) • Mobile Phase: 50 mM potassium hydrogen carbonate buffer containing 400 mg/L sodium decansulfonic acid and 134 μM EDTA (pH 8.3) • Flow Velocity: 150 μl/min. • Temperature of column: 33° C. • Applied voltage of ECD: +450 mV • Reference electrode: Ag/AgCl electrode • Work electrode: platinum electrode
The compound A prepared according to the procedure described in Manufacturing Example 1 was dissolved in 2.5% DMSO solution in advance to prepare for the test. […] The amount of the extracellular acetylcholine released was measured by the procedure described above in (a) Used animal and Rearing Procedure in real time for 120 minutes after the administration. The mouse in Vehicle group took only 2.5% DMSO solution orally in the same way and the amount of the extracellular acetylcholine was measured. […]

[4] = mouse, oral administration; cited from earlier work
[5] = tested on: cytotoxicity induced by β-oligomer; conditions: cited from earlier work
[6] = tested on: scopolamine-induced amnesia mouse; test: Y-maze test, short-term working memory of scopolamine-induced amnesia mouse (Test Example 2); format: in vivo, ddY mouse; conditions: oral 30 mg/kg, scopolamine 1 mg/kg i.p.; FIG. 2(A),(B)
Protocol: The effect of inhibiting lowering of short-term memory was examined by orally or subcutaneously (intraperitoneally) administering the compound A to the mouse.
as §1
The compound A prepared according to the procedure described in Manufacturing Example 1 was dissolved in 2.5% DMSO solution in advance. There were 15 mice in each group, and the 30 mg/kg compound administration group and the 10 mg/kg compound administration group were established and orally administered. The mice of the control group and Vehicle group were orally administered with only 2.5% DMSO solution. In the same manner the compound B and the compound C were orally administered to 10 mice at a dose of 30 mg/kg respectively. Each mouse of the administration groups of the compound A to C and the vehicle group was intraperitoneally administered with scopolamine hydrobromide (manufactured by Sigma-Aldrich Japan S1875) (a dose of 1 mg/kg) which is muscarinic acetylcholine receptor antagonist 30 minutes after the administration. The mice of the control group which were not administered with scopolamine hydrobromide were intraperitoneally administered with (Japanese Pharmacopoeia) physiological saline solution (OTSUKA NORMAL SALINE 3311401A2026). At 30 minutes after the final administration, Y-maze test was conducted, and the working memory was evaluated. The test using the mice orally administered was separately conducted under the same condition as that described above for comparative evaluation of the intraperitoneal administration.
The Y-maze manufactured by Brain Science. idea Co., Ltd. was used for the test. The maze was the maze 3 courses of which were made into Y-letter shape having one selection point and arranged at interval of an angle of 120 degree. […] The mouse put on the gray course (made of polyvinyl chloride) was kept in the conditions and the mouse can see nothing but the upper part. Any one of the 3 courses of the maze was set as a starting point. After placing the mouse quietly at the starting point, the number of the times the mouse entered each course was record per 8 minutes, and as well as which course and in what order the mouse entered it. The ratio of the number of three consecutive entries into different courses (the number of the alternation behavior) to the total number of the selections was calculated as Spontaneous Alternation (%) according to the following formula and was used as an index of the short-term working memory.
From the results obtained, the mean (Mean) and the standard error (SEM) were calculated. The significant difference between the control group and the Vehicle group and between the compound A administration group and the Vehicle group was assessed by Turkey-Kramer's test. The level of significance was set to *P<0.05 and **p<0.01.

Chain of acetylcholine esterase (P22303 32-614): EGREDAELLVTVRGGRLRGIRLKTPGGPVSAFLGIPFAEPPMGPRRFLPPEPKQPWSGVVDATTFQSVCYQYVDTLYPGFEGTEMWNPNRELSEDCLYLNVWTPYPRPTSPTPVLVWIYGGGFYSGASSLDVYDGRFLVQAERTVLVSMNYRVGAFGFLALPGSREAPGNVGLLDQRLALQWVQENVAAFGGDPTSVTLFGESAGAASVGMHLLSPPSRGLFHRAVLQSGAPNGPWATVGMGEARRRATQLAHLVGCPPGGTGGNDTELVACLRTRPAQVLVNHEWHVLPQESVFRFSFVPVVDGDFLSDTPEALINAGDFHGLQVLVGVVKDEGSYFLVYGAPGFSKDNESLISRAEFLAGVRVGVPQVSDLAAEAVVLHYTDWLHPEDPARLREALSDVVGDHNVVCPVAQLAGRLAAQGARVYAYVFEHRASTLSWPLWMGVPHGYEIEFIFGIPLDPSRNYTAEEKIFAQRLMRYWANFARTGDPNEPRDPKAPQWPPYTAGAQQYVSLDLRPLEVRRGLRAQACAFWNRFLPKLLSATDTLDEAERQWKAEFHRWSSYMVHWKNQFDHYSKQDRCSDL

O=C(O[C@@H]1Cc2c(O)cc(O)cc2O[C@@H]1c1cc(O)c(O)c(O)c1)c1cc(O)c(O)c(O)c1 [EGCg, epigallocatechingallate]
amount absorbed into the body after ingestion (bioavailability) [1]: extremely low | generation of amyloid β (amyloid β): inhibit the generation of amyloid β

O=C1CCC(Cc2cc(O)cc(O)c2)O1 (centres unmarked) [5-(3,5-dihydroxyphenyl)-γ-valerolactone]
inhibiting action of acetylcholine esterase (acetylcholine esterase): do not provide inhibiting action | nerve cell proliferating action [2]: significant nerve cell proliferating action | time until which the increased amount of free acetylcholine is maintained ([3]; after the administration): ≤ 100 min | sulfate conjugate and glucuronic acid conjugate in the serum [4]: detected

O=C1CCC(Cc2ccc(O)cc2)O1 (centres unmarked) [5-(4-monohydroxyphenyl)-γ-valerolactone]
cytotoxicity induced by β-oligomer [5]: reduces the cytotoxicity

O=C1CC[C@H](Cc2cc(O)c(O)c(O)c2)O1 [compound C, (R)-5-(3,4,5-trihydroxyphenyl)-γ-valerolactone, reference compound]
amount of extracellular acetylcholine in the cerebral cortex (ratio to basic released amount) [3]: not significant change | ameliorating the impairment of short-term working memory (Spontaneous Alternation) [6]: not confirmed at all

O=C1CC[C@H](Cc2ccc(O)c(O)c2)O1 [compound B, (R)-5-(3,4-dihydroxyphenyl)-γ-valerolactone, reference compound]
amount of extracellular acetylcholine in the cerebral cortex (ratio to basic released amount) [3]: not significant change | ameliorating the impairment of short-term working memory (Spontaneous Alternation) [6]: not confirmed at all
